Results from patent US11826365B2, “Type II raf kinase inhibitors” (Dana-Farber Cancer Institute, Inc., priority 2009, dated 2023).

Columns and labels:
Type in all cases: cell-based
[1] = target: T1, B-RAF 'gatekeeper mutation' T529I (Homo sapiens, UniProt P15056, T529I); experiment: Suppression of B-RAF gatekeeper mutation T529I (FIGS. 18A to 18B); conditions: T529I confers resistance in other B-RAF inhibitors
T1 construct: expressed in transfected cells; host or cells: Ba/F3 (murine pro-B) cells transformed with B-RAF
Method: Ba/F3 cells and B-RAF transformed Ba/F3 cells were maintained in RPMI 1640 medium supplemented with 10% fetal bovine serum (FBS) in a 5% CO2 incubator at 37° C. The untransformed Ba/F3 cells are supplemented with 1.0 ng/ml of recombinant IL3. 4000 Ba/F3 cells per well were plated in quadruplicate in 384-well plates, in RPMI 1640 media supplemented with 10% FBS and various concentrations of IL3. After 48 h of growth, Brightglo reagent (Promega, WI) was added to each well. Luminescent was read as counts/sec. XL-fit was used for IC50 analysis.

[2] = tested on: Erk1/2; experiment: Phosphorylation analysis by western blotting, phospho-Erk after anisomycin stimulation; conditions: following stimulation with anisomycin; western blot, phospho-Erk (Thr202/Tyr204)
Method: (§1) The phosphorylation levels of Erk, JNK, and p38 were assessed by western blotting using phospho-specific antibodies (results not shown). In brief, cells were treated for 15 min with/without 2 uM anicomycin to stimulate the MAPK-signaling pathways. Next various concentrations of the test compound were added to treat cells for 90 minutes. Cells lysed in lysis buffer (50 mM Tris-HCl pH 7.4, 150 mM NaCl, 5 mM EDTA, 1 mM EGTA, 1% Nonidet P-40, 2 mM Na3VO4 and protease inhibitor cocktail (Roche)). Equal amounts of lysate ([…]) were subjected to SDS-PAGE followed by immunoblotting with phospho-specific antibodies—anti-phospho-Erk (Thr202/Tyr204), anti-phospho-JNK (Thr183/Tyr185) and anti-phospho-p38 (Thr180/Tyr182) antibodies—or antibodies recognizing Erk (Cell signaling). Proteins were detected by enhanced chemioluminescence (ECL-plus; Amersham), following the manufacturer's guidelines.

[3] = tested on: JNK; experiment: Phosphorylation analysis by western blotting, phospho-JNK after anisomycin stimulation; conditions: following stimulation with anisomycin; western blot, phospho-JNK (Thr183/Tyr185)
Method: as §1

[4] = tested on: p38; experiment: Phosphorylation analysis by western blotting, phospho-p38 after anisomycin stimulation; conditions: following stimulation with anisomycin; western blot, phospho-p38 (Thr180/Tyr182)
Method: as §1

T1 sequence (P15056 whole entry T529I): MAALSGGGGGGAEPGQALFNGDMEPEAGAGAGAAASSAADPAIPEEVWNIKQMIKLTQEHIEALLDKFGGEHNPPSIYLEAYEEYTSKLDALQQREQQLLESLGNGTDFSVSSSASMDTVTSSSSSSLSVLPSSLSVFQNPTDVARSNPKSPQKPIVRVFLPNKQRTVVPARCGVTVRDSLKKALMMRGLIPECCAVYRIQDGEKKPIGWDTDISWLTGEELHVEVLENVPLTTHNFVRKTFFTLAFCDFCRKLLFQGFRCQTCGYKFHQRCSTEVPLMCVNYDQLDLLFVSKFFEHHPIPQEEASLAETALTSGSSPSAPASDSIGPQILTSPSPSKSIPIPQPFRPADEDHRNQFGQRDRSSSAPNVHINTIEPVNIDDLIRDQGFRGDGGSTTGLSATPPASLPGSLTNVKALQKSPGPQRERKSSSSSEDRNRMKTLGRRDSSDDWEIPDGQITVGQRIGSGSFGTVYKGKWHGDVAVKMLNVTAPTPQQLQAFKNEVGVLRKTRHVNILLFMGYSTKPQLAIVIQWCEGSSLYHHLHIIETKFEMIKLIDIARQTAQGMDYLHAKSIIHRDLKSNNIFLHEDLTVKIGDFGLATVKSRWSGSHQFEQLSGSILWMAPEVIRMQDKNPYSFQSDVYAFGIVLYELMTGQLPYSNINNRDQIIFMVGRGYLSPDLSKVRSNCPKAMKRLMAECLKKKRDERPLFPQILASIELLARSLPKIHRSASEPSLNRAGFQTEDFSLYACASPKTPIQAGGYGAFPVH

- suppression of B-RAF gatekeeper mutation T529I [1]: can suppress
SMILES: CCN1CCN(Cc2ccc(NC(=O)c3ccc(C)c(/C=C/c4cnc5[nH]ccc5c4OC)c3)cc2C(F)(F)F)CC1 [XI-1, (E)-N-(4-((4-ethylpiperazin-1-yl)methyl)-3-(trifluoromethyl)phenyl)-3-(2-(4-methoxy-1H-pyrrolo[2,3-b]pyridin-5-yl)vinyl)-4-methylbenzamide]
- inhibition of phosphorylation of Erk1/2 [2]: not
- inhibition of phosphorylation of JNK [3]: inhibits
- inhibition of phosphorylation of p38 [4]: inhibits
